Where “and” joins values, the source holds several entries; their conditions need not be identical. Identical values can stand only once. Like-named read-outs stand apart in the source and are kept apart here.
Columns and labels:
[1] = molecular target: T1, CD73 (Homo sapiens (Human), UniProt P21589); type: biochemical; conditions: 1 mM NaH2PO4 in enzyme buffer, CD73 0.3 nM, AMP 15 uM
[2] = molecular target: T1, CD73; assay: MDA-MB-231 Cell Based CD73 Activity Assay; conditions: MDA-MB-231-GFP cells, RPMI medium with 10% human plasma, 200 uM AMP
[3] = molecular target: T1, CD73; assay: CD73 Biochemical IC50 Assay; conditions: CD73 0.3 nM, AMP 15 uM, 25 mM Tris pH 7.4, 5 mM MgCl2
Experimental: CD73 Biochemical IC50 Assay
Compound serial dilutions were pre-spotted into Thermo Nunc assay plate. 50 μL CD73 enzyme buffer (CD73 purchased from R&D system=0.6 nM, 25 mM Tris, pH 7.4, 5 mM MgCl2) was added into the assay plate and incubated for 15 mins. […] The samples were run using Rapid fire.

T1 sequence (P21589 27-574): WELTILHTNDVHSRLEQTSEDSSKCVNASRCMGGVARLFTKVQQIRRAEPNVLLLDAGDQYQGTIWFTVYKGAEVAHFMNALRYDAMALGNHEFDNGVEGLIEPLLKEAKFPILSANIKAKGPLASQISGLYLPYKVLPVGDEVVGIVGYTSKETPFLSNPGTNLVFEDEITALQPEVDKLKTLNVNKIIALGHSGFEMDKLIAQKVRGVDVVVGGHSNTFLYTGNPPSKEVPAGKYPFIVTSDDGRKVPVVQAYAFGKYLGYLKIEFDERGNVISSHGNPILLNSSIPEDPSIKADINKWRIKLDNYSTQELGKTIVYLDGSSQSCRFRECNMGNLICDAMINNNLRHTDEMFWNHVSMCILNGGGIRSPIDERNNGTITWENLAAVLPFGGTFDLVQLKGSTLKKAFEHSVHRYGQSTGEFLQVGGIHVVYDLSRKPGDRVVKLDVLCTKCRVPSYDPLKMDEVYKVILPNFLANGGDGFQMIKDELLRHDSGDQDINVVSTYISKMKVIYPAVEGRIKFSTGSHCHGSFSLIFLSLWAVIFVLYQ

SMILES | IC50 [1] | EC50 [2] | IC50 [3]
O=c1[nH]cc(-c2cc([C@H]3C[C@@H]3c3ccccn3)c3nccn3n2)c(=O)[nH]1 (racemic) [Example 52, 5-[8-[(1S,2S)-2-(2-pyridyl)cyclopropyl]imidazo[1,2-b]pyridazin-6-yl]-1H-pyrimidine-2,4-dione and 5-[8-[(1R,2R)-2-(2-pyridyl)cyclopropyl]imidazo[1,2-b]pyridazin-6-yl]-1H-pyrimidine-2,4-dione] | 1.14 nM | 2.69 nM | 20.1 nM
O=c1[nH]cc(-c2cc(CS(=O)(=O)c3ccccc3)c3nc(CS(=O)(=O)c4ccccc4)cn3n2)c(=O)[nH]1 [Example 21, 5-[2,8-bis(benzenesulfonylmethyl)imidazo[1,2-b]pyridazin-6-yl]-1H-pyrimidine-2,4-dione] | – | > 25000 nM | > 2500 nM
CC(C)Oc1cc(-c2c[nH]c(=O)[nH]c2=O)nn2ccnc12 [Example 25, 5-(8-isopropoxyimidazo[1,2-b]pyridazin-6-yl)pyrimidine-2,4(1H,3H)-dione] | – | 361 nM and 429 nM | 657 nM and 557 nM
Cc1nc2c(C3CCC(F)(F)CC3)cc(-c3c[nH]c(=O)[nH]c3=O)nn2n1 [Example 55, 5-(8-(4,4-difluorocyclohexyl)-2-methyl-[1,2,4]triazolo[1,5-b]pyridazin-6-yl)pyrimidine-2,4(1H,3H)-dione] | – | 872 nM | > 2500 nM
Cc1cnc2c(C3CCC(F)(F)CC3)cc(-c3c[nH]c(=O)[nH]c3=O)nn12 [Example 57, 5-(8-(4,4-difluorocyclohexyl)-3-methylimidazo[1,2-b]pyridazin-6-yl)pyrimidine-2,4(1H,3H)-dione] | – | 3300 nM | > 2500 nM
O=c1[nH]cc(-c2cc(COCc3ccccc3)c3nccn3n2)c(=O)[nH]1 [Example 58, 5-(8-((benzyloxy)methyl)imidazo[1,2-b]pyridazin-6-yl)pyrimidine-2,4(1H,3H)-dione] | – | 704 nM | 548 nM
O=c1[nH]cc(-c2cc(N3CC(c4ccccc4)C3)c3nccn3n2)c(=O)[nH]1 [Example 59, 5-(8-(3-phenylazetidin-1-yl)imidazo[1,2-b]pyridazin-6-yl)pyrimidine-2,4(1H,3H)-dione] | – | 71.7 nM | 65 nM
O=c1[nH]cc(-c2cc(N3CCC3c3ccccc3)c3nccn3n2)c(=O)[nH]1 (centres unmarked) [Example 66, 5-(8-(2-phenylazetidin-1-yl)imidazo[1,2-b]pyridazin-6-yl)pyrimidine-2,4(1H,3H)-dione] | – | 4470 nM | > 2500 nM
O=c1[nH]cc(-c2cc([C@H]3C[C@@H]3c3ccc(F)cc3F)c3ncc(F)n3n2)c(=O)[nH]1 [Example 88, 5-[8-[(1S,2S)-2-(2,4-difluorophenyl)cyclopropyl]-3-fluoro-imidazo[1,2-b]pyridazin-6-yl]-1H-pyrimidine-2,4-dione] | – | 2.93 nM | 9.16 nM
O=c1[nH]cc(-c2cc([C@H]3C[C@@H]3c3ccc(F)c(F)c3)c3ncc(F)n3n2)c(=O)[nH]1 [Example 90, 5-[8-[(1S,2S)-2-(3,4-difluorophenyl)cyclopropyl]-3-fluoro-imidazo[1,2-b]pyridazin-6-yl]-1H-pyrimidine-2,4-dione] | – | 1.79 nM | 9.91 nM
CC1(C)CCN(c2cc(-c3c[nH]c(=O)[nH]c3=O)nc3ccnn23)C1 [Example 91, 5-(7-(3,3-dimethylpyrrolidin-1-yl)pyrazolo[1,5-a]pyrimidin-5-yl)pyrimidine-2,4(1H,3H)-dione] | – | 62.2 nM | 104 nM
O=c1[nH]cc(-c2cc(N3CC4CCC(C4)C3)c3nccn3n2)c(=O)[nH]1 [Example 94, 5-(8-(3-azabicyclo[3.2.1]octan-3-yl)imidazo[1,2-b]pyridazin-6-yl)pyrimidine-2,4(1H,3H)-dione] | – | 76 nM | 132 nM
O=c1[nH]cc(-c2cc(C3CC3)c3nc(-c4ccccc4C(F)(F)F)cn3n2)c(=O)[nH]1 [Example 96, 5-(8-cyclopropyl-2-(2-(trifluoromethyl)phenyl)imidazo[1,2-b]pyridazin-6-yl)pyrimidine-2,4(1H,3H)-dione] | – | 66.6 nM | 773 nM
O=c1[nH]cc(-c2cc(C3CC3)c3nc(-c4cccnc4)cn3n2)c(=O)[nH]1 [Example 102, 5-(8-cyclopropyl-2-(pyridin-3-yl)imidazo[1,2-b]pyridazin-6-yl)pyrimidine-2,4(1H,3H)-dione] | – | 258 nM | 473 nM
O=c1[nH]cc(-c2cc(C3CC3)c3nc(-c4ccccn4)cn3n2)c(=O)[nH]1 [Example 103, 5-(8-cyclopropyl-2-(pyridin-2-yl)imidazo[1,2-b]pyridazin-6-yl)pyrimidine-2,4(1H,3H)-dione] | – | 45.1 nM | 70.8 nM

Results, then the compound that gave them:

IC50 [1] | EC50 [2] | IC50 [3] | SMILES
2.08 nM | 7.59 nM | 28.7 nM | O=c1[nH]cc(-c2cc([C@H]3C[C@@H]3c3ccc(C(F)(F)F)cc3)c3nccn3n2)c(=O)[nH]1 (racemic) [Example 42, 5-[8-[(1S,2S)-2-[4-(trifluoromethyl)phenyl]cyclopropyl]imidazo[1,2-b]pyridazin-6-yl]-1H-pyrimidine-2,4-dione and 5-[8-[(1R,2R)-2-[4-(trifluoromethyl)phenyl]cyclopropyl]imidazo[1,2-b]pyridazin-6-yl]-1H-pyrimidine-2,4-dione]
1.52 nM | 5.16 nM | 20.7 nM | O=c1[nH]cc(-c2cc([C@H]3C[C@@H]3c3cccnc3)c3nccn3n2)c(=O)[nH]1 (racemic) [Example 53, 5-[8-[(1S,2S)-2-(3-pyridyl)cyclopropyl]imidazo[1,2-b]pyridazin-6-yl]-1H-pyrimidine-2,4-dione and 5-[8-[(1R,2R)-2-(3-pyridyl)cyclopropyl]imidazo[1,2-b]pyridazin-6-yl]-1H-pyrimidine-2,4-dione]
– | 20400 nM | > 2500 nM | O=c1[nH]cc(-c2cc(C3(C(F)(F)F)CC3)c3nccn3n2)c(=O)[nH]1 [Example 18, 5-[8-[1-(trifluoromethyl)cyclopropyl]imidazo[1,2-b]pyridazin-6-yl]-1H-pyrimidine-2,4-dione]
– | > 25000 nM | > 2500 nM | O=c1[nH]cc(-c2cc(C3(C(F)(F)F)CC3)c3nc(C4(C(F)(F)F)CC4)cn3n2)c(=O)[nH]1 [Example 19, 5-[2,8-bis[1-(trifluoromethyl)cyclopropyl]imidazo[1,2-b]pyridazin-6-yl]-1H-pyrimidine-2,4-dione]
– | > 25000 nM | > 2500 nM | O=c1[nH]cc(-c2cc(CS(=O)(=O)c3ccccc3)c3nccn3n2)c(=O)[nH]1 [Example 20, 5-[8-(benzenesulfonylmethyl)imidazo[1,2-b]pyridazin-6-yl]-1H-pyrimidine-2,4-dione]
– | > 25000 nM | > 2500 nM | O=c1[nH]cc(-c2ccc3nccn3n2)c(=O)[nH]1 [Example 23, 5-(imidazo[1,2-b]pyridazin-6-yl)pyrimidine-2,4(1H,3H)-dione]
– | 1230 nM | 1260 nM | O=c1[nH]cc(-c2cc(OC3CC3)c3nccn3n2)c(=O)[nH]1 [Example 24, 5-(8-cyclopropoxyimidazo[1,2-b]pyridazin-6-yl)pyrimidine-2,4(1H,3H)-dione]
– | 184 nM | 161 nM | O=c1[nH]cc(-c2cc(OCc3ccccc3)c3nccn3n2)c(=O)[nH]1 [Example 26]
– | 145 nM | 90.4 nM | O=c1[nH]cc(-c2cc(C3CC3)n3nccc3n2)c(=O)[nH]1 [Example 27, 5-(7-cyclopropylpyrazolo[1,5-a]pyrimidin-5-yl)pyrimidine-2,4(1H,3H)-dione]
– | 4460 nM | > 2500 nM | N#Cc1cnc2c(C3CCC(F)(F)CC3)cc(-c3c[nH]c(=O)[nH]c3=O)nn12 [Example 56, 8-(4,4-difluorocyclohexyl)-6-(2,4-dioxo-1,2,3,4-tetrahydropyrimidin-5-yl)imidazo[1,2-b]pyridazine-3-carbonitrile]
– | 47.8 nM | 55.4 nM | O=c1[nH]cc(-c2cc(C3CC3)c3ncc(F)n3n2)c(=O)[nH]1 [Example 69, 5-(8-cyclopropyl-3-fluoro-imidazo[1,2-b]pyridazin-6-yl)-1H-pyrimidine-2,4-dione]
– | 649 nM | 1490 nM | O=c1[nH]cc(-c2cc(-c3ccc(NCC4CC4)cc3)c3nccn3n2)c(=O)[nH]1 [Example 71, 5-[8-[4-(cyclopropylmethylamino)phenyl]imidazo[1,2-b]pyridazin-6-yl]-1H-pyrimidine-2,4-dione]
– | 136 nM | 126 nM | O=c1[nH]cc(-c2cc(C3CC3)c3nc(C4CC4)cn3n2)c(=O)[nH]1 [Example 75, 5-(2,8-dicyclopropylimidazo[1,2-b]pyridazin-6-yl)-1H-pyrimidine-2,4-dione]
– | 1230 nM | 1920 nM | O=c1[nH]cc(-c2cc(-n3cccn3)c3nccn3n2)c(=O)[nH]1 [Example 78, 5-(8-pyrazol-1-ylimidazo[1,2-b]pyridazin-6-yl)-1H-pyrimidine-2,4-dione]
– | 248 nM | 211 nM | CC1(C)CCN(c2cc(-c3c[nH]c(=O)[nH]c3=O)nn3ccnc23)CC1 [Example 89, 5-[8-(4,4-dimethyl-1-piperidyl)imidazo[1,2-b]pyridazin-6-yl]-1H-pyrimidine-2,4-dione]
– | 2050 nM | > 2500 nM | O=c1[nH]cc(-c2cc(C3CC3)c3nc(-c4ccncc4)cn3n2)c(=O)[nH]1 [Example 97, 5-(8-cyclopropyl-2-(pyridin-4-yl)imidazo[1,2-b]pyridazin-6-yl)pyrimidine-2,4(1H,3H)-dione]

— patent publication US20240043427A1 (Gilead Sciences, Inc., priority 2020, published 2024)
